The text below walks through data of BindingDB's records for doi:10.1016/j.ejmech.2020.113033 (Leiden University, 2021).

A short description of one series: Displacement of [3H]dofetilide from human ERG stably expressed in HEK293 cell membranes assessed as unlabelled dofetilide IC50 at 3 uM measured after 60 mins by microbeta liquid scintillation counting method (Rvb = 9.1 to 11.7 nM). (In general: In a radioligand displacement assay an active substance lowers the binding of a labelled ligand.)
As usually defined, the IC50 is the point on the concentration scale where inhibition reaches its midpoint. On to `O=C(COc1ccc(C(=O)c2cc(Cl)ccc2Br)cc1)Nc1ccc(Cl)c(C(=O)NCC2CC2)c1`, for which the IC50 turned out to be 18 nM.

In the case of `N#Cc1cccc(NC(=O)COc2ccc(C(=O)c3cc(Cl)ccc3Br)cc2)c1F`, the IC50 was 13 nM. On the same count and under the same terms, next, `O=C(COc1ccc(C(=O)c2cc(Cl)ccc2Br)cc1)Nc1cccc(C(=O)NC2CC2)c1`: 11 nM.

As to `O=C(COc1ccc(C(=O)c2cc(Cl)ccc2Br)cc1)Nc1cccnc1`, the IC50 amounted to 35 nM. Still for that read-out and setting: next, `Cc1cc(NC(=O)COc2ccc(C(=O)c3cc(Cl)ccc3Br)cc2)ccn1`: 60 nM.

Another series can be described thus: Displacement of [3H]dofetilide from human ERG stably expressed in HEK293 cell membranes assessed as unlabelled dofetilide IC50 at 1 uM measured after 60 mins by microbeta liquid scintillation counting method (Rvb = 9.1 to 11.7 nM).
For `O=C(COc1ccc(C(=O)c2cc(Cl)ccc2Br)cc1)Nc1cncc(C(=O)NCC2CC2)c1`, the half-maximal inhibitory concentration (IC50) was 20 nM.

Another series can be described thus: Displacement of [3H]dofetilide from human ERG stably expressed in HEK293 cell membranes assessed as unlabelled dofetilide IC50 at 10 uM measured after 60 mins by microbeta liquid scintillation counting method (Rvb = 9.1 to 11.7 nM).
For `N#Cc1cc(NC(=O)COc2ccc(C(=O)c3cc(Cl)ccc3Br)cc2)ccc1F`, the concentration for half-maximal inhibition (IC50) was determined as 70 nM.

Consider `O=C(COc1ccc(C(=O)c2cc(Cl)ccc2Br)cc1)Nc1ccnc(F)c1`, for which the 50% inhibitory concentration (IC50) worked out at 18 nM. As to `CNC(=O)c1cccc(NC(=O)COc2ccc(C(=O)c3cc(Cl)ccc3Br)cc2)c1`, the half-maximal inhibitory concentration (IC50) amounted to 22 nM. For `O=C(COc1ccc(C(=O)c2cc(Cl)ccc2Br)cc1)Nc1cccc(C(=O)NCC2CC2)c1`, the IC50 is 26 nM. On the same count and under the same terms, next, `O=C(COc1ccc(C(=O)c2ccccc2Br)cc1)Nc1cccnc1`: 36 nM.

The next series can be described thus: Displacement of [3H]dofetilide from human ERG stably expressed in HEK293 cell membranes assessed as unlabelled dofetilide IC50 at 0.5 uM measured after 60 mins by microbeta liquid scintillation counting method (Rvb = 9.1 to 11.7 nM).
Take `O=C(COc1ccc(C(=O)c2cc(Cl)ccc2Br)cc1)Nc1ccnc(C(=O)NCC2CC2)c1`: the half-inhibitory concentration (IC50) turned out to be 18 nM.
